Source: the supplement of paper PMC10307832

What was measured:
Assay in all cases: relative viability (nuclei count vs DMSO), 5 days (fraction); higher = more cells survive
TPCA-1 + Navitoclax = compound: C1=CC(=CC=C1C2=CC(=C(S2)NC(=O)N)C(=O)N)F [TPCA-1] + CC1(C)CCC(c2ccc(Cl)cc2)=C(CN2CCN(c3ccc(C(=O)NS(=O)(=O)c4ccc(N[C@H](CCN5CCOCC5)CSc5ccccc5)c(S(=O)(=O)C(F)(F)F)c4)cc3)CC2)C1 [Navitoclax] (partner 0.5 µM)
Method in brief: (§1)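 Lung cancer cell lines, seeded in 1536-well plates, were treated the following day by pin tool with a single drug or with five library-drug doses (not always all listed) in √10 steps on top of a fixed anchor-drug dose. Cells were fixed and nuclei stained in one step after 5 days, and nuclei were counted. Relative viability is the nuclei count for treated wells divided by that for vehicle wells, reported as medians of duplicate plates.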

[1] = compound: C[C@]12O[C@H](C[C@]1(O)CO)n1c3ccccc3c3c4c(c5c6ccccc6n2c5c31)CNC4=O [Lestaurtinib] + O=C(CCCCCCC(=O)Nc1ccccc1)NO [Vorinostat] (partner 1 µM)
Method in brief: as §1

Lestaurtinib + AZD7762 = compound: C[C@]12O[C@H](C[C@]1(O)CO)n1c3ccccc3c3c4c(c5c6ccccc6n2c5c31)CNC4=O [Lestaurtinib] + NC(=O)Nc1cc(-c2cccc(F)c2)sc1C(=O)N[C@H]1CCCNC1 [AZD7762] (partner 0.2 µM)
Method in brief: as §1

[2] = compound: C[C@]12O[C@H](C[C@]1(O)CO)n1c3ccccc3c3c4c(c5c6ccccc6n2c5c31)CNC4=O [Lestaurtinib] + Nc1ncn([C@H]2C[C@H](O)[C@@H](CO)O2)c(=O)n1 [Decitabine] (partner 2 µM)
Method in brief: as §1

Cell Line	relative viability (TPCA-1 + Navitoclax; first compound 0.04 µM)	relative viability (TPCA-1 + Navitoclax; first compound 0.1265 µM)	relative viability (TPCA-1 + Navitoclax; first compound 0.4 µM)	relative viability (TPCA-1 + Navitoclax; first compound 1.265 µM)	relative viability (TPCA-1 + Navitoclax; first compound 4 µM)	relative viability ([1]; first compound 0.005 µM)	relative viability ([1]; first compound 0.01581 µM)	relative viability ([1]; first compound 0.05 µM)	relative viability ([1]; first compound 0.1581 µM)	relative viability ([1]; first compound 0.5 µM)	relative viability (Lestaurtinib + AZD7762; first compound 0.005 µM)	relative viability (Lestaurtinib + AZD7762; first compound 0.01581 µM)	relative viability (Lestaurtinib + AZD7762; first compound 0.05 µM)	relative viability (Lestaurtinib + AZD7762; first compound 0.1581 µM)	relative viability (Lestaurtinib + AZD7762; first compound 0.5 µM)	relative viability ([2]; first compound 0.005 µM)	relative viability ([2]; first compound 0.01581 µM)	relative viability ([2]; first compound 0.05 µM)	relative viability ([2]; first compound 0.1581 µM)	relative viability ([2]; first compound 0.5 µM)
NCI-H1975	1.16	1.02	1.1	0.904	0.782	0.755	0.735	0.617	0.578	0.382	0.806	0.86	0.693	0.745	0.511	0.395	0.39	0.356	0.36	0.338
RERF-LC-KJ	0.967	0.883	1.06	0.866	0.766	0.56	0.683	0.538	0.588	0.375	1.1	1.16	0.729	0.984	0.61	0.869	0.791	0.563	0.562	0.241
NCI-H441	0.604	0.405	0.736	0.578	0.297	0.641	0.837	0.62	0.573	0.389	1.17	1.39	1.04	1.01	0.743	0.255	0.124	0.233	0.247	0.253
HCC-78	0.973	0.653	0.726	0.652	0.582	0.442	0.407	0.386	0.311	0.243	0.555	0.662	0.517	0.516	0.333	0.748	0.884	0.712	0.662	0.441
NCI-H1915	0.788	0.733	0.783	0.771	0.694	0.512	0.489	0.427	0.325	0.162	0.751	0.745	0.655	0.52	0.24	0.275	0.266	0.284	0.263	0.217
